In the supplement of paper PMC10307832:

Assays:
Experiment in all cases: relative viability (nuclei count vs DMSO), 5 days (fraction); higher = more cells survive
[1] = compound: CCCS(=O)(=O)Nc1ccc(F)c(C(=O)c2c[nH]c3ncc(-c4ccc(Cl)cc4)cc23)c1F [Vemurafenib] + CC1(C)CCC(c2ccc(Cl)cc2)=C(CN2CCN(c3ccc(C(=O)NS(=O)(=O)c4ccc(N[C@H](CCN5CCOCC5)CSc5ccccc5)c(S(=O)(=O)C(F)(F)F)c4)cc3)CC2)C1 [Navitoclax] (partner 0.5 µM)
How it was run: (§1)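 Lung cancer cell lines, seeded in 1536-well plates, were treated the following day by pin tool with a single drug or with five library-drug doses (not always all listed) in √10 steps on top of a fixed anchor-drug dose. Cells were fixed and nuclei stained in one step after 5 days, and nuclei were counted. Relative viability is the nuclei count for treated wells divided by that for vehicle wells, reported as medians of duplicate plates.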

[2] = compound: COc1cccc2cc(-c3nc([C@H]4CC[C@H](C(=O)O)CC4)n4ncnc(N)c34)[nH]c12 [OSI-027] + Nc1ncn([C@H]2C[C@H](O)[C@@H](CO)O2)c(=O)n1 [Decitabine] (partner 2 µM)
How it was run: as §1

[3] = compound: Cc1nc(NC(=O)N2CCC[C@H]2C(N)=O)sc1-c1ccnc(C(C)(C)C(F)(F)F)c1 [Alpelisib] + CC(C)C[C@H](NC(=O)[C@H](Cc1ccccc1)NC(=O)c1cnccn1)B(O)O [Bortezomib] (partner 0.002 µM)
How it was run: as §1

[4] = compound: Cc1nc(NC(=O)N2CCC[C@H]2C(N)=O)sc1-c1ccnc(C(C)(C)C(F)(F)F)c1 [Alpelisib] + O=C(CCCCCCC(=O)Nc1ccccc1)NO [Vorinostat] (partner 1 µM)
How it was run: as §1

Row | Cell Line | relative viability ([1]; first compound 0.03162 µM) | relative viability ([1]; first compound 0.1 µM) | relative viability ([1]; first compound 0.3162 µM) | relative viability ([1]; first compound 1 µM) | relative viability ([2]; first compound 0.01 µM) | relative viability ([2]; first compound 0.03162 µM) | relative viability ([2]; first compound 0.1 µM) | relative viability ([2]; first compound 0.3162 µM) | relative viability ([2]; first compound 1 µM) | relative viability ([3]; first compound 0.04 µM) | relative viability ([3]; first compound 0.1265 µM) | relative viability ([3]; first compound 0.4 µM) | relative viability ([3]; first compound 1.265 µM) | relative viability ([3]; first compound 4 µM) | relative viability ([4]; first compound 0.04 µM) | relative viability ([4]; first compound 0.1265 µM) | relative viability ([4]; first compound 0.4 µM) | relative viability ([4]; first compound 1.265 µM) | relative viability ([4]; first compound 4 µM)
1 | 201T | 1.16 | 1.26 | 1.2 | 1.14 | 0.885 | 0.832 | 0.842 | 0.887 | 0.8 | 1.1 | 1.08 | 1.18 | 1.08 | 1.09 | 0.928 | 0.928 | 0.949 | 0.842 | 0.831
2 | A549 | 1.09 | 1.29 | 1.31 | 1.16 | 0.301 | 0.256 | 0.272 | 0.319 | 0.102 | – | – | – | – | – | – | – | – | – | –
3 | A-427 | 0.969 | 0.887 | 0.977 | 0.94 | 0.522 | 0.59 | 0.469 | 0.484 | 0.37 | 0.889 | 0.843 | 0.978 | 0.849 | 0.893 | 0.854 | 0.861 | 0.893 | 0.827 | 0.858
4 | ABC-1 | – | – | – | – | 1.03 | 1.33 | 1.16 | 1.05 | 0.762 | 0.312 | 0.295 | 0.268 | 0.363 | 0.266 | 1.15 | 0.602 | 0.905 | 0.869 | 0.692
5 | BEN | 0.0514 | 0.0623 | 0.0526 | 0.0536 | 0.609 | 0.707 | 0.596 | 0.513 | 0.483 | 0.793 | 0.733 | 0.807 | 0.761 | 0.697 | 0.588 | 0.544 | 0.715 | 0.578 | 0.584
6 | CAL-12T | 1.28 | 1.2 | 1.47 | 1.28 | – | – | – | – | – | 1.08 | – | 0.952 | – | 0.718 | 0.755 | 0.783 | 0.948 | 0.468 | 0.64
7 | COR-L23 | 0.841 | 0.988 | 0.76 | 0.953 | 0.482 | 0.474 | 0.379 | 0.372 | 0.236 | 0.945 | 0.976 | 1.13 | 0.798 | 0.802 | 0.438 | 0.474 | 0.398 | 0.283 | 0.272
8 | COR-L 105 | 0.647 | – | 0.815 | 0.841 | 0.739 | 0.56 | 0.603 | 0.639 | 0.647 | 0.92 | 0.86 | 1.33 | 0.735 | 0.782 | 0.867 | 0.86 | 0.784 | 0.668 | 0.838
9 | Calu-6 | 0.866 | 0.814 | 0.609 | 0.707 | – | – | – | – | – | 0.952 | 0.827 | 1.1 | 0.852 | 1.03 | – | – | – | – | –
10 | ChaGo-K-1 | 0.949 | 0.809 | – | 0.958 | 0.518 | 0.526 | 0.497 | 0.522 | 0.45 | 0.921 | – | 1.07 | 0.839 | 0.791 | 0.698 | 0.759 | 0.825 | 0.573 | 0.564
11 | EBC-1 | 0.409 | 0.408 | 0.453 | 0.461 | – | – | – | – | – | 0.574 | 0.559 | 0.584 | 0.428 | 0.423 | – | – | – | – | –
12 | EKVX | 0.898 | – | 1.03 | 0.847 | 0.643 | 0.329 | 0.363 | 0.284 | 0.28 | 1.09 | 1.05 | 1.05 | 0.953 | 1.02 | 0.584 | 0.657 | 0.928 | 0.597 | 0.456
13 | EMC-BAC-2 | 1.15 | 1.01 | 1.17 | 1.14 | 0.97 | 0.992 | 0.934 | 0.827 | 0.588 | 1.02 | 1.01 | 1.22 | 0.929 | 0.741 | 0.448 | – | 0.455 | 0.278 | 0.261
14 | EPLC-272H | 1.05 | 0.916 | 1.13 | 1.06 | 0.324 | 0.321 | 0.344 | 0.298 | 0.256 | 0.902 | 0.911 | 1.13 | 0.904 | 0.622 | 0.474 | 0.455 | 0.465 | 0.209 | 0.222
15 | H3255 | 0.493 | – | 0.57 | 0.386 | 0.736 | 0.676 | 0.558 | 0.513 | 0.42 | 0.852 | 0.648 | 1.2 | 0.48 | 0.444 | 0.778 | 0.733 | 0.826 | 0.613 | 0.496
16 | HARA | 1.09 | – | 1.13 | 1.14 | 0.529 | 0.432 | 0.558 | 0.422 | 0.346 | 0.976 | 1.09 | 1.34 | 1.01 | 0.766 | 0.528 | 0.52 | 0.511 | 0.305 | 0.391
17 | HCC-15 | 0.679 | 0.71 | 0.736 | 0.73 | 0.571 | 0.642 | 0.57 | 0.537 | 0.372 | 1.03 | 0.948 | 1.04 | 0.898 | 0.858 | 0.913 | 0.863 | 0.908 | 0.598 | 0.704
18 | HCC-44 | 0.879 | 0.931 | 0.973 | 1.03 | 0.903 | 0.973 | 0.93 | 0.945 | 0.777 | 0.882 | 0.873 | 0.937 | 0.788 | 0.683 | 1.1 | 1.05 | 1.11 | 1.04 | 1.18
19 | HCC-78 | 0.818 | 0.608 | 1.13 | 0.656 | 0.77 | 0.749 | 0.616 | 0.547 | 0.457 | 0.427 | 0.474 | 0.686 | 0.337 | 0.366 | 0.363 | 0.392 | 0.478 | 0.326 | 0.342
